Laboratory results as given in ChEMBL document CHEMBL5352452, “Design, synthesis and pharmacological evaluation of β-carboline derivatives as potential antitumor agent via targeting autophagy” (Eur J Med Chem, 2023).

Tests used:
Format in all cases: functional, cell-based
CWR22R = test: Antiproliferative activity against human 22Rv1 cells assessed as inhibition of cell growth measured after 48 hrs by MTT assay; conditions: 22Rv1, 48 h
HT-29 = test: Antiproliferative activity against human HT-29 cells assessed as inhibition of cell growth measured after 48 hrs by MTT assay; conditions: HT-29, 48 h
BGC-823 = test: Antiproliferative activity against human BGC-823 cells assessed as inhibition of cell growth measured after 48 hrs by MTT assay; conditions: BGC-823, 48 h
MCF7 = test: Antiproliferative activity against human MCF7 cells assessed as inhibition of cell growth measured after 48 hrs by MTT assay; conditions: MCF7, 48 h
786-0 = test: Antiproliferative activity against human 786-0 cells assessed as inhibition of cell growth measured after 48 hrs by MTT assay; conditions: 786-0, 48 h
KB = test: Antiproliferative activity against human KB cells assessed as inhibition of cell growth measured after 48 hrs by MTT assay
A-375 = test: Antiproliferative activity against human A-375 cells assessed as inhibition of cell growth measured after 48 hrs by MTT assay; conditions: A-375, 48 h
SK-OV-3 = test: Antiproliferative activity against human SK-OV-3 cells assessed as inhibition of cell growth measured after 48 hrs by MTT assay; conditions: SK-OV-3, 48 h
ECa-109 cell line = test: Antiproliferative activity against human Eca-109 cells assessed as inhibition of cell growth measured after 48 hrs by MTT assay; conditions: ECa-109, 48 h
[1] = Antiproliferative activity against human BIU-87 cells assessed as inhibition of cell growth measured after 48 hrs by MTT assay; conditions: BIU87, 48 h

| IC50 (HT-29) [µM] | IC50 (BGC-823) [µM] | IC50 (MCF7) [µM] | IC50 (786-0) [µM] | IC50 (KB) [µM] | IC50 (A-375) [µM] | IC50 (SK-OV-3) [µM] | SMILES | IC50 (CWR22R) [µM] | IC50 (ECa-109 cell line) [µM] | IC50 [1] [µM] |
| --- | --- | --- | --- | --- | --- | --- | --- | --- | --- | --- |
| 5.98 | 48.7 | 36.4 | 2.68 | 28.6 | 16.8 | 8.72 | CN1CCN(Cc2cc3c4ccccc4n(Cc4ccc(F)cc4)c3c(CN3CCN(C)CC3)n2)CC1 | 5.62 | 9.87 | 16.9 |
| 5.68 | 36.8 | 15.8 | 3.21 | 15.6 | 12 | 4.62 | CN1CCN(Cc2cc3c4ccccc4n(Cc4cccc(Cl)c4)c3c(CN3CCN(C)CC3)n2)CC1 | 4.93 | 11.3 | 8.01 |
| 11 | 98.5 | 50.2 | 2.32 | 34.8 | 17.2 | 27.3 | CCCCn1c2ccccc2c2cc(CN3CCN(C)CC3)nc(CN3CCN(C)CC3)c21 | 4.63 | 25.6 | 23.9 |
| 6.42 | 58.3 | 27.5 | 2.36 | 24.2 | 13.6 | 15.6 | CN1CCN(Cc2cc3c4ccccc4n(Cc4ccccc4)c3c(CN3CCN(C)CC3)n2)CC1 | 6.47 | 16.8 | 15.5 |
| 46.8 | > 100 | > 100 | 13.4 | > 100 | 85.9 | 93.5 | CN1CCN(Cc2cc3c4ccccc4n(C)c3c(CN3CCN(C)CC3)n2)CC1 | > 100 | > 100 | > 100 |
| 83.3 | > 100 | > 100 | 28.4 | > 100 | > 100 | > 100 | CN1CCN(Cc2cc3c([nH]c4ccccc43)c(CN3CCN(C)CC3)n2)CC1 | > 100 | > 100 | > 100 |
